According to US12673959B2, “Polysubstituted imidazolo[4,5-c][1,2]thiazine derivative and use thereof” (KYUNGPOOK NATIONAL UNIVERSITY INDUSTRY-ACADEMIC COOPERATION …, priority 2020, dated 2026):

Test system: CLP-induced sepsis mouse model
Assay: Survival rate in cecal ligation and puncture (CLP)-induced sepsis mouse model
Type: in vivo
Settings: ICR male mice; compound administered intravenously into tail 12 hours and 50 hours after surgery; FIG. 1
Experimental: The anti-inflammatory efficacy of the prepared compound was tested by the survival rate of peritonitis-induced sepsis mouse model. CLP-induced sepsis mouse models were prepared by in vivo methods to verify anti-inflammatory activity, and the preparation method is a widely used experimental method [Wang H, Nat. Med., 2004, 10, 1216-1221]. Forty 6-week-old ICR male mice were divided into 10 mice in each group and the survival rate was observed.
First, the male mice were given respiratory anesthesia using isoflurane, an incision of about 2 cm was made in the middle of the abdomen to take out the appendix adjacent to the intestine, a 5.0. mm portion from the tip of the appendix was ligated with a 3.0-silk suture and pierced once with a 22-gauge needle, and then the incision was closed again with a 4.0-silk suture. Sham mice were sutured without tying or piercing the appendix after incision, and the compound prepared 12 hours and 50 hours after surgery was administered intravenously into mouse tail.

With `CCN1c2nc(N3CCCC3)n(C)c2C(=O)C(c2ccc(Cl)cc2)S1(=O)=O` (stereo not shown) [Compound 1-42, 3-(4-chlorophenyl)-1-ethyl-5-methyl-6-(pyrrolidin-1-yl)-3,5-dihydroimidazo[4,5-c][1,2]thiazine-4(1H)-one 2,2-dioxide] the “survival rate of the CLP-induced sepsis mouse model increased compared to a group of which only CLP was performed” value was 60%.
